# Test results: patent publication US20240109905A1, “4-ALKOXY-6-OXO-PYRIDAZINE DERIVATIVES MODULATING NLRP3” (JANSSEN PHARMACEUTICA NV, priority 2021, published 2024)
# Read-outs that look alike come from different tables or passages of the source.
# Tests used:
# [1] = system: TNF; assay: PBMC assay: TNF cytokine level after LPS stimulation; type: cell-based; conditions: human PBMCs, 30 min compound, 100 ng/ml LPS for 6 hrs, MSD
# Method: (§1) Peripheral venous blood was collected from healthy individuals and human peripheral blood mononuclear cells (PBMCs) were isolated from blood by Ficoll-Histopaque (Sigma-Aldrich, A0561) density gradient centrifugation. After isolation, PBMCs were stored in liquid nitrogen for later use. Upon thawing, PBMC cell viability was determined in growth medium (RPMI media supplemented with 10% fetal bovine serum, 1% Pen-Strep and 1% L-glutamine). Compounds were spotted in a 1:3 serial dilution in DMSO and diluted to the final concentration in 30 μl medium in 96 well plates (Falcon, 353072). PBMCs were added at a density of 7.5×10^4 cells per well and incubated for 30 min in a 5% CO2 incubator at 37° C. LPS stimulation was performed by addition of 100 ng/ml LPS (final concentration, Invivogen, tlrl-smlps) for 6 hrs followed by collection of cellular supernatant and the analysis of IL-1β (μM) and TNF cytokines levels (μM) via MSD technology according to manufacturers' guidelines (MSD, K151A0H).
# (§2) IC50 and AC50 values (for […]) and EC50 and AC50 values (TNF) were obtained on compounds of the invention/examples, and the AC50 values are depicted in the following table: […]
# [2] = system: IL-1β; assay: PBMC assay: IL-1β release after LPS stimulation; type: cell-based; conditions: human PBMCs, 30 min compound, 100 ng/ml LPS for 6 hrs, MSD, read-out: IL1β AC50
# Method: The activity of a compound according to the present invention can be assessed by in vitro methods.
# as §1, §2
SMILES,AC50 ([1]; PBMC),AC50 ([2]; PBMC),AC50 [1],AC50 [2]
CC(C)COc1c(C(C)C)nn(CC(=O)Nc2ccc3nncn3c2)c(=O)c1F [Compound 61],> 20 µM,0.16 µM,,
CC(C)COc1c(C(C)C)nn(CC(=O)Nc2ccc3nncn3n2)c(=O)c1C(F)F [Compound 62],3.75 µM,0.18 µM,,
Cc1nccc(NC(=O)Cn2nc(C(C)C)c(OCC(C)C)cc2=O)c1F [Compound 63],> 20 µM,0.19 µM,,
CC(C)c1nn(CC(=O)Nc2ccc3nncn3c2)c(=O)cc1OCC1(F)CC1 [Compound 64],> 20 µM,0.2 µM,,
Cc1cc(NC(=O)Cn2nc(C(C)C)c(OCC(C)C)cc2=O)ccn1 [Compound 65],> 20 µM,0.21 µM,,
CC(C)COc1cc(=O)n(CC(=O)NC23CC(C#N)(C2)C3)nc1C(C)C [Compound 66],> 20 µM,0.22 µM,,
CC(C)COc1cc(=O)n(CC(=O)NC23CCC(C(=O)O)(CC2)CC3)nc1C(C)C [Compound 67],> 20 µM,0.24 µM,,
Cc1c(OCC(C)C)c(C(C)C)nn(CC(=O)Nc2ccc3nccn3n2)c1=O [Compound 68],> 20 µM,0.24 µM,,
CC(C)COc1cc(=O)n(CC(=O)Nc2nc3ccc(F)cn3n2)nc1C(C)C [Compound 69],> 20 µM,0.25 µM,,
CC(C)COc1cc(=O)n(CC(=O)Nc2ccc3nncn3c2)nc1N(C)C [Compound 70],> 20 µM,0.26 µM,,
"COC(=O)CC12CC(NC(=O)Cn3nc(C(C)C)c(OCC(C)C)cc3=O)(C1)C2 [Compound 71, methyl 2-(3-(2-(4-isobutoxy-3-isopropyl-6-oxopyridazin-1(6H)-yl)acetamido)bicyclo[1.1.1]pentan-1-yl)acetate]",> 20 µM,0.26 µM,,
CC(C)c1nn(CC(=O)Nc2ccc3nncn3n2)c(=O)c(Cl)c1OCC(F)(F)F [Compound 72],16.6 µM,0.27 µM,,
Cc1c(OCC(C)C)c(C(C)C)nn(CC(=O)Nc2ccncc2)c1=O [Compound 73],> 20 µM,0.33 µM,,
CC(C)c1nn(CC(=O)Nc2ccc3nncn3c2)c(=O)c(Cl)c1OCC1CC1 [Compound 74],> 20 µM,0.36 µM,,
"CC(C)COc1cc(=O)n(CC(=O)NC23CCC(N)(CC2)C3)nc1C(C)C [Compound 75, N-((1r,4r)-4-aminobicyclo[2.2.1]heptan-1-yl)-2-(4-isobutoxy-3-isopropyl-6-oxopyridazin-1(6H)-yl)acetamide]",> 20 µM,0.36 µM,,
CN(C)c1nn(CC(=O)Nc2ccc3nncn3n2)c(=O)cc1OCC1CC1 [Compound 76],> 20 µM,0.37 µM,,
CC(C)COc1cc(=O)n(CC(=O)Nc2nc3ncccn3n2)nc1C(C)C [Compound 77],> 20 µM,0.4 µM,,
"CCCS(=O)(=O)C12CC(NC(=O)Cn3nc(C(C)C)c(OCC(C)C)cc3=O)(C1)C2 [Compound 78, 2-(4-isobutoxy-3-isopropyl-6-oxopyridazin-1(6H)-yl)-N-(3-(propylsulfonyl)bicyclo[1.1.1]pentan-1-yl)acetamide]",> 20 µM,0.42 µM,,
CC(C)COc1cc(=O)n(CC(=O)NC23CC(CO)(C2)C3)nc1C(C)C [Compound 79],> 20 µM,0.43 µM,,
COc1ccn2nc(NC(=O)Cn3nc(C(C)C)c(OCC(C)C)cc3=O)nc2c1 [Compound 80],,,> 20 µM,0.45 µM
"CCN1CC[C@]12C[C@H](NC(=O)Cn1nc(C(C)C)c(OCC(C)C)cc1=O)C2 [Compound 81, N-((4s,6r)-1-ethyl-1-azaspiro[3.3]heptan-6-yl)-2-(4-isobutoxy-3-isopropyl-6-oxopyridazin-1(6H)-yl)acetamide]",> 20 µM,0.48 µM,,
CC(C)COc1cc(=O)n(CC(=O)NC23CC(O)(C2)C3)nc1C(C)C [Compound 82],> 20 µM,0.5 µM,,
CC(C)COc1cc(=O)n(CC(=O)NC23CC(C(F)F)(C2)C3)nc1C(C)C [Compound 83],> 20 µM,0.51 µM,,
CCCOc1c(C(C)C)nn(CC(=O)Nc2ccc3nncn3c2)c(=O)c1Cl [Compound 84],19.4 µM,0.63 µM,,
